According to patent US7989446B2, “4-amino 5-cyanopyrimidine derivatives” (Otsuka Pharmaceutical Co., Ltd., priority 2004, dated 2011):

Assays:
A1 receptor = biological target: T1, A1 receptor (Rattus norvegicus, UniProt P25099); assay: Adenosine A1 agonistic action ([35S]GTPγS binding, rat cerebral cortex cell membrane); type: biochemical, male Wistar rats; conditions: percentage to 100% of CPA 1 μM
T1 construct: cerebral cortex of male Wistar rats (Charles River Japan, Inc) was extirpated; from tissue; host or cells: cerebral cortex of male Wistar rats, cell membrane preparation
T1 sequence (P25099 1-326): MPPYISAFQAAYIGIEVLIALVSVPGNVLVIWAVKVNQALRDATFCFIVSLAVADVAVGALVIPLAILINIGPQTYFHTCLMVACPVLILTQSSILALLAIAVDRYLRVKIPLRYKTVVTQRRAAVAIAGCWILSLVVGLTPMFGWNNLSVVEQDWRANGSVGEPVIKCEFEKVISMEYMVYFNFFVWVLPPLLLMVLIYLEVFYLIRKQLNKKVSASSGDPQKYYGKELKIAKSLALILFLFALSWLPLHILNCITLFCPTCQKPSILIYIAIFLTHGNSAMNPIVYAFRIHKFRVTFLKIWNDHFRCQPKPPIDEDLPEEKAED
Procedure: (2) Adenosine A1 Agonistic Action
The test was carried out as mentioned below with reference to the method disclosed in the literature (Shryock J. C. et al., Molecular Pharmacology, (1998) 53, 886-893; Ito H. et al., European Journal of Pharmacology, (1999) 365, 309-315). That is, cerebral cortex of male Wistar rats (Charles River Japan, Inc) was extirpated, thereto Tris buffer (50 mM Tris-HCl: pH 7.4) was added, it was homogenized, and then centrifuged (1000×g, 10 min). The supernatant was taken, and centrifuged (20,000×g, 20 min). After removing off the supernatant, the precipitate was suspended in Tris buffer, and recentrifuged (20,000×g, 20 min). After removing off the supernatant, the precipitate was suspended in Tris buffer including 2 units/mL ADA (adenosine deaminase) and reserved at −80° C. until used as a liquid preparation of cell membrane for the following tests.
The above liquid preparation of cell membrane in an amount corresponding to 10 μg of cell membrane was added to Tris-buffer comprising 5 mM of MgCl2, 1 mM of EDTA, 1 mM of dithiothreitol, 100 mM of NaCl, 0.01 mM of GDP (guanosine diphosphate), 5 mg/mL of BSA and 2 units/mL of ADA and the mixture was incubated at 25° C. for 30 minutes. Additionally, [^35S]GTPγS (Guanosine 5′-[γ-thio]triphosphate) (the final concentration: 0.4 nM) and the test compound of the given concentration (which was calculated based on the final concentration of the test compound) were added to the mixture and the resulting mixture was incubated at 25° C. for 45 minutes. The reaction mixture was filtrated through a glass fiber filter (unifilter-96 GF/B, Perkin Elmer Life Sciences) to quench reaction. The filter was washed 5 times with ice-cooled Tris-buffer including 5 mM MgCl2. The radioactivity of the filter was measured with Top count NXT(Perkin Elmer Life Sciences). The nonspecific binding was shown as the binding activity of [^35S]GTPγS in the presence of 0.01 mM GTPγS.
The activity (%, A1 agonistic action) of each test compound was calculated on the basis of the test result ([^35S]GTPγS binding activity) derived with 1 μM of CPA (N^6-Cyclopentyladenosine, Sigma, code C-8031) in control which was counted as 100%.

[1] = biological target: T2, adenosine A2a receptor (Human) (Homo sapiens, UniProt P29274); assay: c-AMP generating action in cell expressing adenosine A2a receptor; type: cell-based; conditions: HEK293 cell expressing human A2a; 100% = c-AMP caused by 1 μM CGS-21680; read-out: A2a Agonistic Action (EC50)
T2 construct: host or cells: HEK293
T2 sequence (P29274 whole entry): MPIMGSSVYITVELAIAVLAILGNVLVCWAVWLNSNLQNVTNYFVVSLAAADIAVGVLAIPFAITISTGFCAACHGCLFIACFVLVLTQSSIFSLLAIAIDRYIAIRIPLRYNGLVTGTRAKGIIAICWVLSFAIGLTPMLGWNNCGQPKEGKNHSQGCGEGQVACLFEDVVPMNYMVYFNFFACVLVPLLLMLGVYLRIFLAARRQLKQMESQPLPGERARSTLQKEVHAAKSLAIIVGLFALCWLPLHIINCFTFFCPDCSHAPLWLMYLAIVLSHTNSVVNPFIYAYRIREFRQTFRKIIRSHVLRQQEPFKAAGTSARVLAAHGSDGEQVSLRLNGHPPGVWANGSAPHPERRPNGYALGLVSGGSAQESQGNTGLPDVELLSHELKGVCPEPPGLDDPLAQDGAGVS
Procedure, shortened: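 HEK293 cells with human A2a receptor were preincubated 30 min at 37 °C with 0.1 mM IBMX and 2 U/mL adenosine deaminase. Compound was then added for 30 min and cAMP read by EIA. EC50 = concentration giving 50% of the cAMP produced by 1 μM CGS-21680.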

[2] = system: Intraocular Pressure in Rabbit; assay: Measuring test for intraocular pressure in rabbit; type: in vivo, Female New Zealand white rabbits; conditions: mean±standard error
Procedure, shortened: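 Female New Zealand white rabbits received 50 μL eye drops of compound in 10 mM phosphate buffer pH 7.5 (suspension if insoluble) in one eye, vehicle as control. IOP measured by pneumatonometer under topical oxybuprocaine before and 0.5–6 h after dosing; reported as ΔIOP from pre-instillation, mmHg, mean±SE.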

[3] = 0.03% ophthalmic solution, rabbit, instillation, 0.5 hr after instillation, difference from pre-instillation
[4] = 0.03% ophthalmic solution, rabbit, instillation, 1 hr after instillation, difference from pre-instillation
[5] = 0.03% ophthalmic solution, rabbit, instillation, 2 hr after instillation, difference from pre-instillation
[6] = 0.03% ophthalmic solution, rabbit, instillation, 3 hr after instillation, difference from pre-instillation
[7] = 0.03% ophthalmic solution, rabbit, instillation, 4 hr after instillation, difference from pre-instillation
[8] = 0.03% ophthalmic solution, rabbit, instillation, 6 hr after instillation, difference from pre-instillation
[9] = 0.01% ophthalmic solution, test group, 0.5 hr
[10] = 0.01% ophthalmic solution, test group, 1 hr
[11] = 0.01% ophthalmic solution, test group, 2 hr
[12] = 0.01% ophthalmic solution, test group, 3 hr
[13] = 0.01% ophthalmic solution, test group, 4 hr
[14] = 0.01% ophthalmic solution, test group, 6 hr

Row | SMILES | A1 Agonistic Action (%) (A1 receptor; test compound 10 nM) | A1 Agonistic Action (%) (A1 receptor; test compound 100 nM) | A1 Agonistic Action (%) (A1 receptor; test compound 1 μM) | EC50 [1] | ΔIOP (mmHg) [2, 3] | ΔIOP (mmHg) [2, 4] | ΔIOP (mmHg) [2, 5] | ΔIOP (mmHg) [2, 6] | ΔIOP (mmHg) [2, 7] | ΔIOP (mmHg) [2, 8] | A1 Agonistic Action (%) (A1 receptor; test compound 10 nM, hydrochloride) | A1 Agonistic Action (%) (A1 receptor; test compound 100 nM, hydrochloride) | A1 Agonistic Action (%) (A1 receptor; test compound 1 μM, hydrochloride) | ΔIOP (mmHg) [2, 9] | ΔIOP (mmHg) [2, 10] | ΔIOP (mmHg) [2, 11] | ΔIOP (mmHg) [2, 12] | ΔIOP (mmHg) [2, 13] | ΔIOP (mmHg) [2, 14]
1 | CC(=O)Nc1ccc(-c2nc(SCc3cccc(CCC(=O)N4CCN(CCN5CCCC5)CC4)n3)nc(N)c2C#N)cc1.Cl [Example 77, N-{4-[6-amino-5-cyano-2-(6-{3-oxo-3-[4-(2-pyrrolidin-1-ylethyl)piperazin-1-yl]propyl}pyridin-2-ylmethylsulfanyl)pyrimidin-4-yl]phenyl}acetamide hydrochloride] | 2% | 18% | 40% | 9.5 nM | −0.8 ± 0.5 mmHg | −5.0 ± 0.6 mmHg | −5.1 ± 0.4 mmHg | −4.4 ± 0.6 mmHg | −4.9 ± 0.7 mmHg | −3.1 ± 0.7 mmHg | – | – | – | – | – | – | – | – | –
2 | CCN(CC)CCN1CCN(C(=O)CCc2cccc(CSc3nc(N)c(C#N)c(-c4ccc(NC(C)=O)cc4)n3)n2)CC1.Cl [Example 79, N-{4-[6-amino-5-cyano-2-(6-{3-[4-(2-diethylaminoethyl)piperazin-1-yl]-3-oxopropyl}pyridin-2-ylmethylsulfanyl)pyrimidin-4-yl]phenyl}acetamide hydrochloride] | – | – | – | 8.4 nM | 0.3 ± 0.9 mmHg | −3.9 ± 0.5 mmHg | −5.4 ± 0.7 mmHg | −5.8 ± 0.8 mmHg | −4.8 ± 0.7 mmHg | −2.8 ± 1.0 mmHg | 0% | 12% | 45% | – | – | – | – | – | –
3 | CCN(CC)CCN1CCN(C(=O)CCc2cccc(CSc3nc(N)c(C#N)c(-c4ccc(NC(C)=O)cc4)n3)n2)CC1.Cl [Example 75, N-{4-[6-amino-5-cyano-2-(6-{3-[4-(2-diethylaminoethyl)piperazin-1-yl]-3-oxopropyl}pyridin-2-ylmethylsulfanyl)pyrimidin-4-yl]phenyl}acetamide hydrochloride] | 3% | 22% | 50% | 3 nM | – | – | – | – | – | – | – | – | – | −0.8 ± 0.4 mmHg | −5.1 ± 0.5 mmHg | −5.3 ± 0.9 mmHg | −4.0 ± 0.9 mmHg | −4.3 ± 0.9 mmHg | −1.3 ± 0.4 mmHg
4 | CC(=O)Nc1ccc(-c2nc(SCc3cccc(CCC(=O)N4CCN(C)CC4)n3)nc(N)c2C#N)cc1 [Example 46, N-[4-(6-amino-5-cyano-2-{6-[3-(4-methylpiperazin-1-yl)-3-oxopropyl]pyridin-2-ylmethylsulfanyl}pyrimidin-4-yl)phenyl]-acetamide] | 4% | 26% | 45% | 7.4 nM | – | – | – | – | – | – | – | – | – | −0.6 ± 0.6 mmHg | −4.4 ± 0.8 mmHg | −4.9 ± 0.6 mmHg | −3.8 ± 0.7 mmHg | −2.9 ± 0.5 mmHg | −0.5 ± 0.6 mmHg
